Experimental findings from ChEMBL document CHEMBL4196011, “The lead optimization of the polyamine conjugate of flavonoid with a naphthalene motif: Synthesis and biological evaluation” (Eur J Med Chem, 2018) are described below.

The source made the active and inactive calls. The rule behind the calls is not given here.

Usually IC50 stands for the concentration at which inhibition is half-maximal. A low value points to inhibition by little substance.

Data set [1] concerns HepG2. Description: Induction of apoptosis in human HepG2 cells assessed as early apoptotic cells at 5 uM after 8 hrs by Annexin V-FITC/propidium iodide staining-based flow cytometry (reference value: 1.29%). The data set is classed as functional.
Data set [2] concerns HepG2. Description: Induction of autophagy in human HepG2 cells assessed as formation of autolysosomes at 2.5 to 7.5 uM preincubated cells with 3-MA for 2 hrs followed by compound addition measured after 48 hrs by MDC staining-based assay. The class given is functional, cell-based.
Data set [3] can be described thus: Drug localization in mitochondria of human HepG2 cells at 7.5 uM after 8 hrs by MitoTracker Green dye-based confocal fluorescence microscopic analysis. The data set is classed as ADME. The note with it: hepg2, 8 h.
The nature of data set [4]: Drug localization in golgi apparatus of human HepG2 cells at 7.5 uM after 8 hrs by Golgi-Tracker Red dye-based confocal fluorescence microscopic analysis. The data set is classed as ADME, subcellular. Particulars: hepg2, 8 h.
For data set [5], the system named is HepG2. Description: Induction of apoptosis in human HepG2 cells assessed as late apoptotic cells at 5 uM after 48 hrs by Annexin V-FITC/propidium iodide staining-based flow cytometry (reference value: 0.95%). The class given is functional.
The next data set concerns Mus musculus. Description: Toxicity in Kunming mouse xenografted with […] H22 cells assessed as effect on heart weight index at 30 mg/kg, iv administered for 7 consecutive days. The data set is classed as organism-based. The note with it: in vivo.
In data set [6] the test system is HepG2. Description: Induction of apoptosis in human HepG2 cells assessed as early apoptotic cells at 5 uM after 24 hrs by Annexin V-FITC/propidium iodide staining-based flow cytometry (reference value: 2.07%). The data set is classed as functional.
Data set [7] deals with HepG2. Description: Induction of apoptosis in human HepG2 cells assessed as viable cells at 5 uM after 48 hrs by Annexin V-FITC/propidium iodide staining-based flow cytometry (reference value: 96.67%). The data set is classed as functional. Particulars: HepG2, 48 h, read-out: Activity.
In data set [8] the test system is H22. Briefly: Antitumor activity against […] xenografted in Kunming mouse assessed as tumor growth inhibition at 40 mg/kg, iv for 7 consecutive days measured on day 16. The note with it: 384 h, read-out: TGI. The class given is functional.
For data set [9], the system named is HepG2. Briefly: Induction of apoptosis in human HepG2 cells assessed as late apoptotic cells at 2.5 uM after 24 hrs by Annexin V-FITC/propidium iodide staining-based flow cytometry (reference value: 0.88%). The class given is functional. On the technique in general: Flow cytometry measures light scatter and fluorescence of single cells or particles in a stream.

Data set [10] in a line: Drug localization in nucleus of human HepG2 cells at 7.5 uM after 8 hrs by Hoechst 33342 staining-based HCS analysis. The class given is ADME, subcellular. The note with it: hepg2, 8 h.
In data set [11] the target is MAP kinase p38 (Homo sapiens) (UniProt O15264+Q15759+Q16539+P53778). Description: Induction of p38 phosphorylation in human HepG2 cells after 48 hrs by immunofluorescence staining-based high content screening assay. The class given is cell-based.
For data set [12], the system named is HepG2. Briefly: Induction of autophagy in human HepG2 cells assessed as formation of autolysosomes after 48 hrs by MDC staining-based assay. The class given is functional, cell-based.
Data set [13] concerns the target c-Jun N-terminal kinase, JNK (Homo sapiens) (UniProt P45983+P53779+P45984). Description: Induction of JNK phosphorylation in human HepG2 cells after 48 hrs by immunofluorescence staining-based high content screening assay. The data set is classed as cell-based.
Data set [14] has as its system H22. Briefly: Antitumor activity against […] xenografted in Kunming mouse assessed as tumor growth inhibition at 30 mg/kg, iv for 7 consecutive days measured on day 16. The data set is classed as functional. The note with it: 384 h, read-out: TGI. (In general: A xenograft is tissue or cells of one species grown in another, often human tumour cells in immunodeficient mice.)

A further data set has as its system HCT-116. Briefly: Antiproliferative activity against human HCT116 cells after 48 hrs by MTT assay. The class given is functional, cell-based. Particulars: HCT-116, 48 h. (Tetrazolium dyes change colour on reduction, which living cells bring about.)
Data set [15] relates to HepG2. Description: Induction of autophagy in human HepG2 cells assessed as upregulation of beclin1 expression at 5 uM by Western blot analysis. The class given is functional, cell-based.
Data set [16] relates to HepG2. Briefly: Induction of apoptosis in human HepG2 cells assessed as viable cells at 2.5 uM after 24 hrs by Annexin V-FITC/propidium iodide staining-based flow cytometry (reference value: 96.97%). The class given is functional. The note with it: HepG2, 24 h, read-out: Activity.

For `COc1ccc2cc(-c3oc4c(CNCCCCN)cccc4c(=O)c3OC)ccc2c1Br.Cl.Cl`, the Activity was 5.06% in the data set on HepG2 [1]; 9.87% in the data set on HepG2 [5]; “Non-Toxic” in the data set with Mus musculus; 15.76% with HepG2 [6]; 0.88% with HepG2 [9]; “Dose-dependent effect” in data set [11]. Also, the Activity result (in the data set on HepG2 [12]; in data set [13]) was “Dose-dependent effect” each time. Moreover, the outcome with HepG2 [2] was inactive. For the same molecule, the Drug uptake entry in data set [3] was “Active”; in [4] it was “Not Active”; in [10], “Not Active”. Besides, the viability at 5 µM in the data set on HepG2 [7] stood at 60.4%. The inhibition in vivo at 40 mg/kg in the data set with H22 [8] was 69.1%. Further, in the data set on H22 [14], the inhibition in vivo at 30 mg/kg is 63.6%. For the same molecule, inhibition in the data set with HCT-116 was half-maximal at 15.1 µM (IC50). In the data set with HepG2 [15], the outcome was Active. Besides, in the data set with HepG2 [16], the viability at 2.5 µM was 88.7%.
